The source of these data is US11331283B2, “Pharmaceutical compositions comprising cinacalcet hydrochloride and one or more binders” (UNICHEM LABORATORIES LTD, priority 2017, dated 2022).

A short description of this data set: Particle size distribution of micronized cinacalcet hydrochloride by Malvern Mastersizer. As to conditions: particle size after jet milling. The format is physicochemical. The method, then: Micronization of cinacalcet hydrochloride was carried out by Jet Milling. Particle size of micronized cinacalcet hydrochloride was measured with Malvern Mastersizer.

Consider `C[C@@H](NCCCc1cccc(C(F)(F)F)c1)c1cccc2ccccc12.Cl` [Batch No 60002, N-[1-(R)-(−)-(1-naphthyl)ethyl]-3-[3(trifluoromethyl)phenyl]-1-aminopropane hydrochloride], for which the D10 was 4.06 μm, the D50 is 9.58 μm and the D90 is given as 18.8 μm.

With `C[C@@H](NCCCc1cccc(C(F)(F)F)c1)c1cccc2ccccc12.Cl` [Micronized cinacalcet hydrochloride, N-[1-(R)-(−)-(1-naphthyl)ethyl]-3-[3(trifluoromethyl)phenyl]-1-aminopropane hydrochloride], the D10 was not above 5 μm, the D50 is not above 10 μm and the D90 is recorded as not above 20 μm.

For the molecule `C[C@@H](NCCCc1cccc(C(F)(F)F)c1)c1cccc2ccccc12.Cl` [Batch No 70002, N-[1-(R)-(−)-(1-naphthyl)ethyl]-3-[3(trifluoromethyl)phenyl]-1-aminopropane hydrochloride], the D10 is on record as 2.35 μm, the D50 is reported as 6.81 μm and the D90 is 15.4 μm.

Take `C[C@@H](NCCCc1cccc(C(F)(F)F)c1)c1cccc2ccccc12.Cl` [Batch No 70001, N-[1-(R)-(−)-(1-naphthyl)ethyl]-3-[3(trifluoromethyl)phenyl]-1-aminopropane hydrochloride]: the D10 is 2.66 μm, the D50 is recorded as 6.55 μm and the D90 is recorded as 13.4 μm.
